According to paper PMC12102759 (Protein Science : A Publication of the Protein Society, 2025):

System: G3BP1 NFT2
Type: binding, human
Conditions: library DMS-CoV, bait G3BP1 NFT2, prey N, listed as aa = residue placed at this position, column sums to 1

RNAPRITFGGPSDSTG G9K (RNAPRITFKGPSDSTG)
DMS PSSM value, G (position 9) (peptide RNAPRITFGGPSDSTG): 0

APRITFGGPSDSTGSN F6A (APRITAGGPSDSTGSN)
DMS PSSM value, F (position 6) (peptide APRITFGGPSDSTGSN): 0

RNAPRITFGGPSDSTG N2R (RRAPRITFGGPSDSTG)
DMS PSSM value, N (position 2) (peptide RNAPRITFGGPSDSTG): 0

RNAPRITFGGPSDSTG G10H (RNAPRITFGHPSDSTG)
DMS PSSM value, G (position 10) (peptide RNAPRITFGGPSDSTG): 0

RNAPRITFGGPSDSTG I6D (RNAPRDTFGGPSDSTG)
DMS PSSM value, I (position 6) (peptide RNAPRITFGGPSDSTG): 0

APRITFGGPSDSTGSN A1W (WPRITFGGPSDSTGSN)
DMS PSSM value, A (position 1) (peptide APRITFGGPSDSTGSN): 0.0009046

RNAPRITFGGPSDSTG T7G (RNAPRIGFGGPSDSTG)
DMS PSSM value, T (position 7) (peptide RNAPRITFGGPSDSTG): 0

RNAPRITFGGPSDSTG G10N (RNAPRITFGNPSDSTG)
DMS PSSM value, G (position 10) (peptide RNAPRITFGGPSDSTG): 0

APRITFGGPSDSTGSN P9N (APRITFGGNSDSTGSN)
DMS PSSM value, P (position 9) (peptide APRITFGGPSDSTGSN): 0

RNAPRITFGGPSDSTG G10I (RNAPRITFGIPSDSTG)
DMS PSSM value, G (position 10) (peptide RNAPRITFGGPSDSTG): 0

APRITFGGPSDSTGSN F6E (APRITEGGPSDSTGSN)
DMS PSSM value, F (position 6) (peptide APRITFGGPSDSTGSN): 0

APRITFGGPSDSTGSN I4S (APRSTFGGPSDSTGSN)
DMS PSSM value, I (position 4) (peptide APRITFGGPSDSTGSN): 0

RNAPRITFGGPSDSTG A3G (RNGPRITFGGPSDSTG)
DMS PSSM value, A (position 3) (peptide RNAPRITFGGPSDSTG): 0.6104

RNAPRITFGGPSDSTG T15R (RNAPRITFGGPSDSRG)
DMS PSSM value, T (position 15) (peptide RNAPRITFGGPSDSTG): 0

APRITFGGPSDSTGSN G8Q (APRITFGQPSDSTGSN)
DMS PSSM value, G (position 8) (peptide APRITFGGPSDSTGSN): 0

RNAPRITFGGPSDSTG P11M (RNAPRITFGGMSDSTG)
DMS PSSM value, P (position 11) (peptide RNAPRITFGGPSDSTG): 0

APRITFGGPSDSTGSN P9V (APRITFGGVSDSTGSN)
DMS PSSM value, P (position 9) (peptide APRITFGGPSDSTGSN): 0.001999

RNAPRITFGGPSDSTG G16I (RNAPRITFGGPSDSTI)
DMS PSSM value, G (position 16) (peptide RNAPRITFGGPSDSTG): 0

APRITFGGPSDSTGSN S12A (APRITFGGPSDATGSN)
DMS PSSM value, S (position 12) (peptide APRITFGGPSDSTGSN): 0.01432

RNAPRITFGGPSDSTG S14Q (RNAPRITFGGPSDQTG)
DMS PSSM value, S (position 14) (peptide RNAPRITFGGPSDSTG): 0

APRITFGGPSDSTGSN T13G (APRITFGGPSDSGGSN)
DMS PSSM value, T (position 13) (peptide APRITFGGPSDSTGSN): 0.00113

RNAPRITFGGPSDSTG G10D (RNAPRITFGDPSDSTG)
DMS PSSM value, G (position 10) (peptide RNAPRITFGGPSDSTG): 0

APRITFGGPSDSTGSN S12L (APRITFGGPSDLTGSN)
DMS PSSM value, S (position 12) (peptide APRITFGGPSDSTGSN): 0.001118

RNAPRITFGGPSDSTG T15D (RNAPRITFGGPSDSDG)
DMS PSSM value, T (position 15) (peptide RNAPRITFGGPSDSTG): 0

RNAPRITFGGPSDSTG N2P (RPAPRITFGGPSDSTG)
DMS PSSM value, N (position 2) (peptide RNAPRITFGGPSDSTG): 0

APRITFGGPSDSTGSN T13Q (APRITFGGPSDSQGSN)
DMS PSSM value, T (position 13) (peptide APRITFGGPSDSTGSN): 0.01432

APRITFGGPSDSTGSN P2A (AARITFGGPSDSTGSN)
DMS PSSM value, P (position 2) (peptide APRITFGGPSDSTGSN): 0.004798

RNAPRITFGGPSDSTG G10A (RNAPRITFGAPSDSTG)
DMS PSSM value, G (position 10) (peptide RNAPRITFGGPSDSTG): 1

APRITFGGPSDSTGSN F6P (APRITPGGPSDSTGSN)
DMS PSSM value, F (position 6) (peptide APRITFGGPSDSTGSN): 0

RNAPRITFGGPSDSTG P11Q (RNAPRITFGGQSDSTG)
DMS PSSM value, P (position 11) (peptide RNAPRITFGGPSDSTG): 0

APRITFGGPSDSTGSN S10R (APRITFGGPRDSTGSN)
DMS PSSM value, S (position 10) (peptide APRITFGGPSDSTGSN): 0

APRITFGGPSDSTGSN G7I (APRITFIGPSDSTGSN)
DMS PSSM value, G (position 7) (peptide APRITFGGPSDSTGSN): 0

RNAPRITFGGPSDSTG F8K (RNAPRITKGGPSDSTG)
DMS PSSM value, F (position 8) (peptide RNAPRITFGGPSDSTG): 0

RNAPRITFGGPSDSTG T7H (RNAPRIHFGGPSDSTG)
DMS PSSM value, T (position 7) (peptide RNAPRITFGGPSDSTG): 0

RNAPRITFGGPSDSTG T7Y (RNAPRIYFGGPSDSTG)
DMS PSSM value, T (position 7) (peptide RNAPRITFGGPSDSTG): 0

APRITFGGPSDSTGSN S12W (APRITFGGPSDWTGSN)
DMS PSSM value, S (position 12) (peptide APRITFGGPSDSTGSN): 0.01354

APRITFGGPSDSTGSN R3G (APGITFGGPSDSTGSN)
DMS PSSM value, R (position 3) (peptide APRITFGGPSDSTGSN): 0.02417

RNAPRITFGGPSDSTG P11S (RNAPRITFGGSSDSTG)
DMS PSSM value, P (position 11) (peptide RNAPRITFGGPSDSTG): 0

APRITFGGPSDSTGSN S12Q (APRITFGGPSDQTGSN)
DMS PSSM value, S (position 12) (peptide APRITFGGPSDSTGSN): 0.01405

RNAPRITFGGPSDSTG R5N (RNAPNITFGGPSDSTG)
DMS PSSM value, R (position 5) (peptide RNAPRITFGGPSDSTG): 0

APRITFGGPSDSTGSN F6V (APRITVGGPSDSTGSN)
DMS PSSM value, F (position 6) (peptide APRITFGGPSDSTGSN): 0

APRITFGGPSDSTGSN G7P (APRITFPGPSDSTGSN)
DMS PSSM value, G (position 7) (peptide APRITFGGPSDSTGSN): 0

RNAPRITFGGPSDSTG P11T (RNAPRITFGGTSDSTG)
DMS PSSM value, P (position 11) (peptide RNAPRITFGGPSDSTG): 0

RNAPRITFGGPSDSTG T7E (RNAPRIEFGGPSDSTG)
DMS PSSM value, T (position 7) (peptide RNAPRITFGGPSDSTG): 1

APRITFGGPSDSTGSN T13F (APRITFGGPSDSFGSN)
DMS PSSM value, T (position 13) (peptide APRITFGGPSDSTGSN): 0.002251

APRITFGGPSDSTGSN G7R (APRITFRGPSDSTGSN)
DMS PSSM value, G (position 7) (peptide APRITFGGPSDSTGSN): 0

APRITFGGPSDSTGSN P9Y (APRITFGGYSDSTGSN)
DMS PSSM value, P (position 9) (peptide APRITFGGPSDSTGSN): 0.04934

APRITFGGPSDSTGSN F6G (APRITGGGPSDSTGSN)
DMS PSSM value, F (position 6) (peptide APRITFGGPSDSTGSN): 0

APRITFGGPSDSTGSN G7T (APRITFTGPSDSTGSN)
DMS PSSM value, G (position 7) (peptide APRITFGGPSDSTGSN): 0
